From patent US11712458B2, “Degradation of Bruton's tyrosine kinase (BTK) by conjugation of BTK inhibitors with E3 ligase ligand and methods of use” (DANA-FARBER CANCER INSTITUTE, INC., priority 2018, dated 2023)

Test system: patient-derived mantle cell lymphoma (MCL) cells (DFBL-96069)
Experiment: Patient-derived xenograft MCL mouse model
Assay type: in vivo
Settings: NSG mice grafted with MCL cells, IP, QD, 50 mg/kg, two weeks; FIG. 5
Method: NSG Mice were grafted with patient-derived mantle cell lymphoma (MCL) cells (DFBL-96069). Once burden of disease reached ˜2%, treatment began with indicated compounds: vehicle (IP, BID), Compound I-1 (IP, QD, 50 mg/kg), lenalidomide (IP, QD, 50 mg/kg), and ibrutinib (PO, QD, 30 mg/kg). Mice were treated for two weeks and 4-6 hours after the last dose, peripheral blood was taken and quantified for disease burden via flow cytometry.

**Q.** How did the “Efficacy (disease burden in peripheral blood via flow cytometry)” value turn out when `Cc1c(NC(=O)c2ccc(C(C)(C)C)cc2)cccc1-c1cn(C)c(=O)c(Nc2ccc(C(=O)N3CCN(CCCCCCNC(=O)CNc4cccc5c4C(=O)N(C4CCC(=O)NC4=O)C5=O)CC3)cc2)n1` (stereo not shown) [II-1] was run?
**A.** Its value is “showed efficacy”.
